Legend:
[1] = test system: HCT-116; test: Cytotoxicity against human HCT116 cells after 72 hrs by MTT assay; format: functional, cell-based; details: HCT-116, 72 h
[2] = test system: A-375; test: Cytotoxicity against human A375 cells after 72 hrs by MTT assay; format: functional, cell-based; details: A-375, 72 h
[3] = Cytotoxicity against human U937 cells at 10 uM after 72 hrs by MTT assay; format: functional; details: U-937, 72 h
[4] = test system: HepG2; test: Cytotoxicity against human HepG2 cells at 10 uM after 72 hrs by MTT assay; format: functional; details: HepG2, 72 h
[5] = test system: HT-29; test: Cytotoxicity against human HT-29 cells at 10 uM after 72 hrs by MTT assay; format: functional; details: HT-29, 72 h
[6] = test system: HCT-116; test: Cytotoxicity against human HCT116 cells at 10 uM after 72 hrs by MTT assay; format: functional; details: HCT-116, 72 h
[7] = test system: A-375; test: Cytotoxicity against human A375 cells at 10 uM after 72 hrs by MTT assay; format: functional; details: A-375, 72 h
[8] = Cytotoxicity against human LN18 cells at 10 uM after 72 hrs by MTT assay; format: functional; details: LN-18, 72 h
[9] = cells; format: functional; details: Homo sapiens, 786-0, 72 h
Description: Cytotoxicity against human 786-O cells at 10 uM after 72 hrs by MTT assay

[10] = test system: NCI-N87; test: Cytotoxicity against human NCI-N87 cells at 10 uM after 72 hrs by MTT assay; format: functional; details: NCI-N87, 72 h
[11] = test system: PC-3; test: Cytotoxicity against human PC3 cells at 10 uM after 72 hrs by MTT assay; format: functional; details: PC-3, 72 h
[12] = Cytotoxicity against human NCI-H1115 cells at 10 uM after 72 hrs by MTT assay; format: functional; details: NCI-H1115, 72 h
[13] = test system: NCI-H69; test: Cytotoxicity against human NCI-H69 cells at 10 uM after 72 hrs by MTT assay; format: functional; details: NCI-H69, 72 h
[14] = test system: K562; test: Cytotoxicity against human K562 cells at 10 uM after 72 hrs by MTT assay; format: functional; details: K562, 72 h
[15] = test system: MDA-MB-231; test: Cytotoxicity against human MDA-MB-231 cells at 10 uM after 72 hrs by MTT assay; format: functional; details: MDA-MB-231, 72 h
[16] = Cytotoxicity against human Jurkat E6-1 cells at 10 uM after 72 hrs by MTT assay; format: functional

SMILES | IC50 [1] [µM] | IC50 [2] [µM] | other results
COc1ccc2cc(-c3ccc4c(c3)OCO4)n(CCC=O)c(=O)c2c1OC | 4.69 | 2.93 | 
COc1ccc2cc3n(c(=O)c2c1OC)CC(O)C(O)c1cc2c(cc1-3)OCO2 (centres undefined) | 22.2 | 9 | inhibition at 10 µM [3]: 23.5%; inhibition at 10 µM [4]: 20.9%; inhibition at 10 µM [5]: 7.56%; inhibition at 10 µM [6]: 32.8%; inhibition at 10 µM [7]: 51.1%; inhibition at 10 µM [8]: 36.5%; inhibition at 10 µM [9]: 11%; inhibition at 10 µM [10]: 18.3%; inhibition at 10 µM [11]: 33.9%; inhibition at 10 µM [12]: 25.8%; inhibition at 10 µM [13]: 19.8%; inhibition at 10 µM [14]: 15.6%; inhibition at 10 µM [15]: 9.29%; inhibition at 10 µM [16]: 14.8%
C=CCn1c(-c2ccc(OC)c(OC)c2)cc2ccc(OC)c(OC)c2c1=O | > 10 | 0.5 | 
C=CCOc1nc(-c2ccc3c(c2)OCO3)cc2ccc(OC)c(OC)c12 | > 10 | > 10 | 
C=Cc1cc2c(cc1-c1cc3ccc(OC)c(OC)c3c(=O)[nH]1)OCO2 | 1.54 | 0.43 | 
COc1ccc2cc(-c3ccc4c(c3)OCO4)n(CC(O)CO)c(=O)c2c1OC (racemic) | > 10 | > 10 | 
CCCS(=O)(=O)Nc1ccc(F)c(C(=O)c2c[nH]c3ncc(-c4ccc(Cl)cc4)cc23)c1F [VEMURAFENIB] | > 30 | 0.18 | 
COc1ccc(-c2cc3ccc(OC)c(OC)c3c(=O)n2CCC=O)cc1OC | > 10 | 5.82 | 
C=CCn1c(-c2ccc3c(c2)OCO3)cc2ccc(OC)c(OC)c2c1=O | 0.86 | 0.2 | 
CO/C=C/Cn1c(-c2ccc3c(c2)OCO3)cc2ccc(OC)c(OC)c2c1=O | 0.42 | 0.11 | 
COc1ccc2cc(-c3ccc4c(c3)OCO4)[nH]c(=O)c2c1OC | > 10 | 7.99 | 
C=CCn1c(-c2cc3c(cc2C=C)OCO3)cc2ccc(OC)c(OC)c2c1=O | 0.65 | 0.17 | 
COc1cc2c(cc1OC)-c1cc3ccc(OC)c(OC)c3c(=O)n1CC=C2 | 8.84 | 2.1 | 
CNC(=O)c1cc(Oc2ccc(NC(=O)Nc3ccc(Cl)c(C(F)(F)F)c3)cc2)ccn1 [SORAFENIB] | 5.65 | 7.56 | 
COc1ccc(-c2cc3ccc(OC)c(OC)c3c(=O)[nH]2)cc1OC | > 10 | > 10 | 
COc1ccc2cc(-c3ccc4c(c3)OCO4)n(CC=O)c(=O)c2c1OC | 9.23 | 3.77 | 
C=CCOc1nc(-c2ccc(OC)c(OC)c2)cc2ccc(OC)c(OC)c12 | > 10 | > 10 | 
COc1ccc2cc3n(c(=O)c2c1OC)CC=Cc1cc2c(cc1-3)OCO2 | 4.87 | 0.59 | inhibition at 10 µM [3]: 66.9%; inhibition at 10 µM [4]: 54.6%; inhibition at 10 µM [5]: 50.3%; inhibition at 10 µM [6]: 59.1%; inhibition at 10 µM [7]: 86.5%; inhibition at 10 µM [8]: 56.4%; inhibition at 10 µM [9]: 61.9%; inhibition at 10 µM [10]: 46%; inhibition at 10 µM [11]: 58.4%; inhibition at 10 µM [12]: 77.7%; inhibition at 10 µM [13]: 56.8%; inhibition at 10 µM [14]: 51%; inhibition at 10 µM [15]: 39.1%; inhibition at 10 µM [16]: 73%

From ChEMBL document CHEMBL3085662, “Overman rearrangement and Pomeranz-Fritsch reaction for the synthesis of benzoazepinoisoquinolones to discover novel antitumor agents” (Eur J Med Chem, 2013)
